Source: publication PMC11555678, “Improved Broad Spectrum Antifungal Drug Synergies with Cryptomycin, a Cdc50-Inspired Antifungal Peptide” (ACS Infectious Diseases, 2024)
Like-named read-outs stand apart in the source and are kept apart here.

Experiments:
C. neoformans H99 = format: cell-based, Cryptococcus neoformans; settings: RPMI1640, 37 °C; for MIC of antifungal in combination with KKOO / MIC of antifungal in combination with KKOO-NH2: 48 h
Procedure: All microdilution assays with fungi were carried out in accordance with CLSI protocols from M27 for yeasts and M38 for filamentous fungi, respectively, unless otherwise specified.[64],[65] Briefly, 96-well plates were charged with RPMI1640 media, with operating volume in the first column, 200 μL, and half operating volume, 100 μL, in the remaining wells. Drug stock solution in DMSO was aliquoted into the first well in each row. Half of the volume in the dosed well was serially diluted 2-fold until column 11. Column 11 was used as the negative growth control, and column 12 was used as the positive growth control. ON yeast cultures in YPD were washed twice in DD-H2O, resuspended in PBS, and adjusted to 5000 cfu/mL in RPMI. The 96-well plate was inoculated with 100 μL aliquots of cell suspension per well. […]
(§1) To assess drug synergy, the initial media charged to the plate contained the peptide at twice the final operating concentration; the remaining processing steps were identical to the MIC experiment. Upon addition of 100 μL of inoculant, the final operating concentration was achieved. Control MIC plates were prepared alongside drug synergy plates to account for the day-to-day variability in any individual MIC. FIC index is computed using eq 1. All MIC assays and drug synergy assays were completed with two technical replicates per 96-well plate and a minimum of two biological replicates per drug combination. If a difference in MIC between the two technical replicates on the plate were observed, only the higher concentration was reported as the MIC to reduce the possibility of type 1 error (false positive) [drawing 1] 1

Cg FKS2 S663P = assay: Drug synergy (MIC in peptide-supplemented media); format: cell-based, Candida glabrata; settings: for MIC of antifungal in combination with KKOO / MIC of antifungal in combination with KKOO-NH2: RPMI1640, 37 °C, 48 h
Procedure: (§2) All microdilution assays with fungi were carried out in accordance with CLSI protocols from M27 for yeasts and M38 for filamentous fungi, respectively, unless otherwise specified.[64],[65] Briefly, 96-well plates were charged with RPMI1640 media, with operating volume in the first column, 200 μL, and half operating volume, 100 μL, in the remaining wells. Drug stock solution in DMSO was aliquoted into the first well in each row. Half of the volume in the dosed well was serially diluted 2-fold until column 11. Column 11 was used as the negative growth control, and column 12 was used as the positive growth control. ON yeast cultures in YPD were washed twice in DD-H2O, resuspended in PBS, and adjusted to 5000 cfu/mL in RPMI. The 96-well plate was inoculated with 100 μL aliquots of cell suspension per well. Plates were incubated at 37 °C for 2 days.
as §1

Cg FKS1 S629P = assay: Drug synergy (MIC in peptide-supplemented media); format: cell-based, Candida glabrata; settings: for MIC of antifungal in combination with KKOO / MIC of antifungal in combination with KKOO-NH2: RPMI1640, 37 °C, 48 h
Procedure: as §2, §1

Cn apt1Δ = assay: microbe, parasite or virus in culture; format: cell-based, Cryptococcus neoformans; settings: Cryptococcus neoformans, 48 h, 37 °C, 48 h
Procedure: (§3) Previous studies have shown that modifying microbiological media with salts such as CaCl2 can have a drastic effect on the growth of fungi and their responses to antifungals.[19],[35] In the case of CaCl2, the divalent cation, Ca^2+, is involved in fungal cell stress response. To understand how the peptide activity may involve calcium and stress response, the MICs of KKOO, KKOO-NH2, FLC, and CAS were assessed as a function of the calcium concentration in liquid YPD media. It was observed that calcium enrichment completely desensitized the wild-type strain to KKOO and KKOO-NH2, Tables 7 and 8, respectively. Effects of calcium enrichment on the susceptibility of Cryptococcus to CAS similar to literature values were recorded, Supporting Information, Table S7.[35]
as §2

Cn crm1Δ = assay: microbe, parasite or virus in culture; format: cell-based, Cryptococcus neoformans; settings: Cryptococcus neoformans, 48 h, 37 °C
Procedure: as §3, §2

Cn Crm1-oe = assay: microbe, parasite or virus in culture; format: cell-based, Cryptococcus neoformans; settings: Cryptococcus neoformans, CRM1OE, 48 h, 37 °C
Procedure: as §3, §2

Cn H99 = assay: microbe, parasite or virus in culture; format: cell-based, Cryptococcus neoformans; settings: Cryptococcus neoformans, H99, 48 h, 37 °C, 48 h, read-out: MIC
Procedure: as §3
In order to control for the effects of enriching YPD with a divalent cation, MICs and ROS production were also measured as a function of the MgCl2 supplement at the same millimolar concentrations of cation as in the CaCl2-modified experiments. […] No peptide susceptibility changes were observed against Cn cdc50Δ in magnesium-enriched media, Table S9. ROS production in H99 induced by peptide exposure was inhibited after 30 min of treatment in the magnesium-enriched condition, similar to the levels observed in the calcium-enriched media at 16 μg/mL KKOO-NH2, Figure S1. […] The link between peptide activity and calcium homeostasis may be vital in understanding precisely how the peptide kills fungal cells and requires more research to elucidate.
as §2

[1] = in the presence of 2 μg/mL KKOO-NH2

## CC[C@H](C)C[C@H](C)CCCCCCCCC(=O)N[C@H]1C[C@@H](O)[C@@H](NCCN)NC(=O)[C@@H]2[C@@H](O)CCN2C(=O)[C@H]([C@H](O)CCN)NC(=O)[C@H]([C@H](O)[C@@H](O)c2ccc(O)cc2)NC(=O)[C@@H]2C[C@@H](O)CN2C(=O)[C@H]([C@@H](C)O)NC1=O [CAS, caspofungin]
C. neoformans H99; +0 μg/mL (FITC)KKOO
  MIC of antifungal in combination with (FITC)KKOO: 16 µg/mL
C. neoformans H99; +0 μg/mL KKOO (control)
  MIC of antifungal in combination with KKOO: 16 µg/mL
C. neoformans H99; +0 μg/mL KKOO-NH2 (control)
  MIC of antifungal in combination with KKOO-NH2: 16 µg/mL
C. neoformans H99; +1 μg/mL KKOO-NH2
  MIC of antifungal in combination with KKOO-NH2: 16 µg/mL
C. neoformans H99; +1 μg/mL KKOO
  MIC of antifungal in combination with KKOO: 16 µg/mL
C. neoformans H99; +2 μg/mL KKOO-NH2
  MIC of antifungal in combination with KKOO-NH2: 16 µg/mL
C. neoformans H99; +2 μg/mL KKOO
  MIC of antifungal in combination with KKOO: 16 µg/mL
C. neoformans H99; +4 μg/mL (FITC)KKOO
  MIC of antifungal in combination with (FITC)KKOO: 16 µg/mL
C. neoformans H99; +4 μg/mL KKOO-NH2
  MIC of antifungal in combination with KKOO-NH2: 4 µg/mL
C. neoformans H99; +4 μg/mL KKOO
  MIC of antifungal in combination with KKOO: 16 µg/mL
C. neoformans H99; +8 μg/mL (FITC)KKOO
  MIC of antifungal in combination with (FITC)KKOO: 16 µg/mL
C. neoformans H99; +8 μg/mL KKOO
  MIC of antifungal in combination with KKOO: 8 µg/mL
Cg FKS2 S663P; +0 μg/mL KKOO (control)
  MIC of antifungal in combination with KKOO: 4 µg/mL
Cg FKS2 S663P; +0 μg/mL KKOO-NH2 (control)
  MIC of antifungal in combination with KKOO-NH2: 4 µg/mL
Cg FKS2 S663P; +1 μg/mL KKOO-NH2
  MIC of antifungal in combination with KKOO-NH2: 2 µg/mL
Cg FKS2 S663P; +1 μg/mL KKOO
  MIC of antifungal in combination with KKOO: 2 µg/mL
Cg FKS2 S663P; +2 μg/mL KKOO-NH2
  MIC of antifungal in combination with KKOO-NH2: 1 µg/mL
Cg FKS2 S663P; +2 μg/mL KKOO
  MIC of antifungal in combination with KKOO: 2 µg/mL
Cg FKS2 S663P; +4 μg/mL KKOO-NH2
  MIC of antifungal in combination with KKOO-NH2: 1 µg/mL
Cg FKS2 S663P; +4 μg/mL KKOO
  MIC of antifungal in combination with KKOO: 1 µg/mL
Cg FKS2 S663P; [1]
  reduction of MIC of antifungal: 4 fold
Cg FKS1 S629P; +0 μg/mL KKOO (control)
  MIC of antifungal in combination with KKOO: 1 µg/mL
Cg FKS1 S629P; +0 μg/mL KKOO-NH2 (control)
  MIC of antifungal in combination with KKOO-NH2: 1 µg/mL
Cg FKS1 S629P; +1 μg/mL KKOO-NH2
  MIC of antifungal in combination with KKOO-NH2: 0.5 µg/mL
Cg FKS1 S629P; +1 μg/mL KKOO
  MIC of antifungal in combination with KKOO: 0.5 µg/mL
Cg FKS1 S629P; +2 μg/mL KKOO-NH2
  MIC of antifungal in combination with KKOO-NH2: 0.062 µg/mL
Cg FKS1 S629P; +2 μg/mL KKOO
  MIC of antifungal in combination with KKOO: 0.125 µg/mL
Cg FKS1 S629P; +4 μg/mL KKOO-NH2
  MIC of antifungal in combination with KKOO-NH2: 0.004 µg/mL
Cg FKS1 S629P; +4 μg/mL KKOO
  MIC of antifungal in combination with KKOO: 0.008 µg/mL
Cg FKS1 S629P; [1]
  reduction of MIC of antifungal: 16 fold
Cn apt1Δ; YPD + 0 mM Ca2+
  MIC: 8 µg/mL
Cn apt1Δ; YPD + 2.5 mM Ca2+
  MIC: 16 µg/mL
Cn apt1Δ; YPD + 5 mM Ca2+
  MIC: 32 µg/mL
Cn apt1Δ; YPD + 10 mM Ca2+
  MIC: 32 µg/mL
Cn apt1Δ; YPD + 20 mM Ca2+
  MIC: 64 µg/mL
Cn crm1Δ; YPD + 0 mM Ca2+
  MIC: 8 µg/mL
Cn crm1Δ; YPD + 2.5 mM Ca2+
  MIC: 32 µg/mL
Cn crm1Δ; YPD + 5 mM Ca2+
  MIC: 32 µg/mL
Cn crm1Δ; YPD + 10 mM Ca2+
  MIC: 64 µg/mL
Cn crm1Δ; YPD + 20 mM Ca2+
  MIC: > 128 µg/mL
Cn Crm1-oe; YPD + 0 mM Ca2+
  MIC: 8 µg/mL
Cn Crm1-oe; YPD + 2.5 mM Ca2+
  MIC: 32 µg/mL
Cn Crm1-oe; YPD + 5 mM Ca2+
  MIC: 32 µg/mL
Cn Crm1-oe; YPD + 10 mM Ca2+
  MIC: 128 µg/mL
Cn Crm1-oe; YPD + 20 mM Ca2+
  MIC: 128 µg/mL
Cn H99; YPD + 0 mM Ca2+
  MIC: 8 µg/mL
Cn H99; YPD + 0 mM Mg2+
  MIC: 8 µg/mL
Cn H99; YPD + 2.5 mM Ca2+
  MIC: 16 µg/mL
Cn H99; YPD + 2.5 mM Mg2+
  MIC: 16 µg/mL
Cn H99; YPD + 5 mM Ca2+
  MIC: 32 µg/mL
Cn H99; YPD + 5 mM Mg2+
  MIC: 16 µg/mL
Cn H99; YPD + 10 mM Ca2+
  MIC: 64 µg/mL
Cn H99; YPD + 10 mM Mg2+
  MIC: 32 µg/mL
Cn H99; YPD + 20 mM Mg2+
  MIC: 64 µg/mL
